The record followed here is patent publication US20040006236A1, “Diaminopropionic acid derivatives” (priority 1999, published 2004).

Assay [1] concerns the target T1, LFA-1 binding to immobilized ICAM-1 (Homo sapiens, UniProt P05107+P20701).
T1 construct: made in house; host or cells: transfected 293 cells (LFA-1)
As to the kind of experiment: LFA-1/ICAM-1 protein-protein assay (solid-phase ELISA). The following applies: read-out: LFA-1/ICAM-1 Protein-Protein Assay IC50. The gist of the method: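 Human 5dICAM-Ig (ICAM-1 extracellular domain–IgG Fc) coated on plates; membrane-bound LFA-1 from transfected 293 cells (280 ng/mL) added with compound in Mn2+-containing HEPES buffer pH 7.2, 2 h at 37° C. Bound LFA-1 detected via anti-β2 antibody and HRP/TMB at 450 nm; IC50s determined.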

Assay [2] has as its system T lymphocyte proliferation (C57BI/6 spleen cells with irradiated BALB/c spleen cells). As to the kind of experiment: Mixed lymphocyte reaction (MLR), one-way. Type of assay: cell-based, mice. The settings on record: Mus musculus, T-lymphocyte; read-out: MLR IC50. The source says: Admixture of murine spleen cells from two different inbred strains of mice induces proliferation of T lymphocytes. The magnitude of T cell proliferation depends on the extent of disparity in the major histocompatibility antigens between the two strains. Splenic T lymphocytes from both strains proliferate due to alloantigen recognition, a process for which the interaction of ICAM-1 on antigen-presenting cells with LFA-1 on lymphocytes is necessary. The ability of antagonists to inhibit T lymphocyte proliferation following recognition of alloantigens was assessed in a one-way MLR, where cells from one strain were irradiated to permit measurement of the proliferative response of cells from the other strain. Spleen cells were washed three times in tissue culture medium (TCM; see below). […] One hundred microliters of serial dilutions of antagonists or TCM were added to the spleen cell mixture. The total volume in each well was 200 μL. TCM was RPMI1640 containing 10% heat-inactivated fetal bovine serum, […] L-glutamine, 100 Units/ml each of penicillin and streptomycin and 5×10^−5 M 2-mercaptoethanol. Dilutions of antagonists were prepared in TCM. Plates were incubated in 5% CO2 for 3 days. On the third day, 0.5 μCi of tritiated thymidine (10 μCi/mL) was added to all the wells. Cells were harvested 6 h later on a 96-well plate harvester and the amount of tritiated thymidine incorporated was assessed in a liquid scintillation counter.

In assay [3] the test system is Mac-1 and LFA-1-mediated neutrophil binding to immobilized ICAM-1. As to the kind of experiment: Neutrophil (Mac-1 and LFA-1)/ICAM-1 cell-based screening assay. The settings on record: human neutrophils. On the procedure: Both Mac-1 and LFA-1 are expressed on the cell surface of neutrophils. The ability of antagonists to inhibit Mac-1 and LFA-1-mediated neutrophil binding to immobilized ICAM-1 was quantitated by a cell based assay. Typically, fusion protein consisting of the entire extracellular domain of human ICAM-1 and the Fc domain of human IgG (5dICAM-Ig) was coated onto 96 well microtiter plates (1 μg in 100 μL TBS) overnight at 4° C. The plates were then blocked with 150 μL of 10% PVP in TBS for 1 h at 37° C. Plates were washed 3 times (150 μL each) with TBS. Human neutrophils were purified from whole blood from healthy volunteers using LSM (ICN). Cells (8×10^6/mL) were fluorescently labeled with 6-carboxyfluorescein (100 μg/mL) for 40 min in IMDM/1 mM MgCl2/1.2 mM CaCl2 as described in Example 287. Cells (8×10^6/mL) were stimulated with f-Met-Leu-Phe (10 μM) for 5 min at room temperature just prior to being used in the assay, and diluted to 2×10^6 cells/mL with RPMI/0.05% BSA/0.2 mM MnCl2. Stock solutions (10 mM) of test compounds were diluted to 2.5 mM with DMSO. A series of 1:4 dilutions in DMSO were performed to achieve a concentration range of 38.2 nM-2.5 mM. Each sample was further diluted 50-fold with RPMI/0.05% BSA/0.2 mM MnCl2. Equal volumes of labeled cells were then added to assay tubes containing diluted compound. Final concentrations of compound tested in the assay ranged from 0.38 nM-25 μM with a cell concentration of 1×10^6 per mL. Cells were incubated for 10 min at 37° C. with gentle shaking, then dispensed (100 μL per well) onto ICAM-1 coated plates and incubated for 30 min at 37° C./5% CO2. Unbound cells were washed and plates were read on a Cytofluor™ 2300 (Millipore) as described in Example 384.

Assay [4] has as its system cell-surface Mac-1 adhesion to immobilized fibrinogen (HL-60 cells). As to the kind of experiment: Mac-1/Fibrinogen cell-based screening assay. Set-up: species or system human. The following applies: Homo sapiens, HL-60, HL-60 cells; read-out: Mac-1/Fgn Cell based Assay IC50. The method, then: Cellular Mac-1/Fibrinogen antagonist activity, defined as the ability to inhibit cell-surface Mac-1 adhesion to immobilized fibrinogen, was quantitated by a cell based assay. Human fibrinogen was coated onto 96 well microtiter plates (1 μg in 100 μL TBS) overnight at 4° C. The plates were then blocked with 150 μL of 10% polyvinyl pyrrolidone (PVP) in TBS for 1 h at 37° C. Plates were washed 3 times (150 μL each) with TBS. […] A ten-fold excess of volume of the same buffer was added and cells were centrifuged. The medium was decanted and cells were resuspended at a concentration of 2×10^6 cells/mL in RPMI/0.05% BSA/0.2 mM MnCl2. Stock solutions (10 mM in DMSO) of test compounds were diluted to 2.5 mM with DMSO. […] Each sample was further diluted 50-fold with RPMI/0.05% BSA/0.2 mM MnCl2. Equal volumes of labeled cells were then added to assay tubes containing diluted compounds. […] Cells were incubated for 10 min at 37° C. with gentle shaking, then dispensed (100 μL per well) onto fibrinogen coated plates and incubated for 30 min at 37° C./5% CO2. Unbound cells were gently washed with TBS two times.

T1 sequence (P20701 26-1170): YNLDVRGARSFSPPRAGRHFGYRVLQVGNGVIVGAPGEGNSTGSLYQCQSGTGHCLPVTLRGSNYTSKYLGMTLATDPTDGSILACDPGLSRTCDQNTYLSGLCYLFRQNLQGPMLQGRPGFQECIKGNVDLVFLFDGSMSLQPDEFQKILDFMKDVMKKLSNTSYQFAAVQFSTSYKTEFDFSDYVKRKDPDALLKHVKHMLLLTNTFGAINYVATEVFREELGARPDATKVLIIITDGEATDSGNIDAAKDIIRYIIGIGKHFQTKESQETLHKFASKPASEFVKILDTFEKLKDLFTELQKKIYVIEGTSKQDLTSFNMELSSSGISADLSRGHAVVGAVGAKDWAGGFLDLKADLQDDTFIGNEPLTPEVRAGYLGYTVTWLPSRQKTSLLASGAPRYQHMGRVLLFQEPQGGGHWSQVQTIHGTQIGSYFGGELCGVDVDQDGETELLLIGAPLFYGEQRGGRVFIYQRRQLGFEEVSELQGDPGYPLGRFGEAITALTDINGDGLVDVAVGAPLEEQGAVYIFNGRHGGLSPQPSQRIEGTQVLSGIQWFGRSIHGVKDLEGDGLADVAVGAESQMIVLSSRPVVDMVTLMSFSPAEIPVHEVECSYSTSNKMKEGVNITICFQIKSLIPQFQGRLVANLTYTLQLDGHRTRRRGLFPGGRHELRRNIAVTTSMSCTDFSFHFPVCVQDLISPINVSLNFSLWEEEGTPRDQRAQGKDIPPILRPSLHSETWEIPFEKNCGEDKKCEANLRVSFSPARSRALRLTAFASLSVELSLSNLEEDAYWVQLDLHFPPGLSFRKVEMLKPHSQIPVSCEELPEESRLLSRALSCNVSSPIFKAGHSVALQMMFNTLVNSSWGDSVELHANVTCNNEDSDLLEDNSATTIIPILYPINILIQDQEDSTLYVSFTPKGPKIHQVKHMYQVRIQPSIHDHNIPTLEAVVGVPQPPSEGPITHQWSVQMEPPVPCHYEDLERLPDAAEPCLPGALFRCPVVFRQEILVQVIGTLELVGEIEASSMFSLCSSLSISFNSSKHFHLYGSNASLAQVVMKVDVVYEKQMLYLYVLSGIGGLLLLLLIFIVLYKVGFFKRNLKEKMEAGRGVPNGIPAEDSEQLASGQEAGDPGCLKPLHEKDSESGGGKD
T1 sequence (P05107 23-769): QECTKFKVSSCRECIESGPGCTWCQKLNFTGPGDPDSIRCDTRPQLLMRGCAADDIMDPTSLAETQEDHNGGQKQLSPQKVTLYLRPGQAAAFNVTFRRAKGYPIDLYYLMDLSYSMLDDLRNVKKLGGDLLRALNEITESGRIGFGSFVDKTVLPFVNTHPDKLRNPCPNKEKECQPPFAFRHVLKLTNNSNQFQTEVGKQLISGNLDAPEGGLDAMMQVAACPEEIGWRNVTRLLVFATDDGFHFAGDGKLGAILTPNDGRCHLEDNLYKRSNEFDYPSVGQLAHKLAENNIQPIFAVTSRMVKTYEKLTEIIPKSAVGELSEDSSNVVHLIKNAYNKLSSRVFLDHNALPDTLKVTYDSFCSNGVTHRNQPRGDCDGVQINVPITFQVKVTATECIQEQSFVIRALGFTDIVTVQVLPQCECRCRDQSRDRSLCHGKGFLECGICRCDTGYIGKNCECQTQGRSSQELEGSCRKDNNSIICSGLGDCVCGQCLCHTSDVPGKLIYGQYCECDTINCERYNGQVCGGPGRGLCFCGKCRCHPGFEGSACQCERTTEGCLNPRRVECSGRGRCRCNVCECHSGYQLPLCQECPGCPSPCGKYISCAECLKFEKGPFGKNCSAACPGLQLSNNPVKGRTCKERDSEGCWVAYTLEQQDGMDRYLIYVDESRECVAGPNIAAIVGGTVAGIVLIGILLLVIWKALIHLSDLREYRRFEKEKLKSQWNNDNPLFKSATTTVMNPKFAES

`Cc1cc(C(=O)NCc2cccc(O)c2)cc(Cl)c1C(=O)N[C@@H](CNC(=O)c1cc(O)cc(O)c1)C(=O)O` [Example 341, N-[2-chloro-4-[[[(3-hydroxyphenyl)methyl]amino]carbonyl]-6-methylbenzoyl]-3-(3,5-dihydroxybenzoylamino)-L-alanine]: the IC50 in assay [1] worked out at 0.3 nM; in assay [2], 3 nM; in assay [3], 0.3 nM.
For the compound `O=C(NCc1cccc(O)c1)c1ccc(C(=O)N[C@@H](CNC(=O)[C@@H]2Cc3c([nH]c4ccccc34)CN2)C(=O)O)c(Cl)c1` [Example 296], the IC50 is 3.4 nM in assay [1], 4600 nM in assay [2] and 167 nM in assay [4].
Turning to `O=C(NCc1cccc(O)c1)c1ccc(C(=O)N[C@@H](CNC(=O)[C@@H]2C[C@@H](O)CN2)C(=O)O)c(Cl)c1` [Example 268], the IC50 is 1.7 nM in assay [1], 900 nM in assay [2] and 148 nM in assay [4].
